Reference: patent US20040039023A1, “Therapeutic agents” (priority 2000, published 2004)

Columns and labels:
5-HT1A receptors = molecular target: T1, 5-HT1A receptors (Rattus norvegicus, UniProt P19327); assay: Inhibition of [3H]8-OH-DPAT binding to 5-HT1A receptors, rat hippocampal tissue; details: ligand [3H]8-OH-DPAT 2 nM
T1 construct: Hippocampal tissue from the brains of male Charles River CD rats; from tissue; host or cells: rat hippocampus membrane homogenate
T1 sequence (P19327 1-422): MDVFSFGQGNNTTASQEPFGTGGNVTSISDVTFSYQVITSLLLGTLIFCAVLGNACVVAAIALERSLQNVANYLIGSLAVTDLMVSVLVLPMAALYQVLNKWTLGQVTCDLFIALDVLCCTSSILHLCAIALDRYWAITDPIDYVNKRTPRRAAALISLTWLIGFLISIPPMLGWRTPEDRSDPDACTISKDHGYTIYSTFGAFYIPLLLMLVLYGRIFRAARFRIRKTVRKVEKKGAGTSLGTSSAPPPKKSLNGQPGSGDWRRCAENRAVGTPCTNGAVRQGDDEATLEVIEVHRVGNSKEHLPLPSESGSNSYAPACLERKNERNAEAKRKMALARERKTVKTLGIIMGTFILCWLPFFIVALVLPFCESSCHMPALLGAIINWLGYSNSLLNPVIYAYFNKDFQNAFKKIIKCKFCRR
Protocol: Hippocampal tissue from the brains of male Charles River CD rats weighing between 150-250 g were homogenised in ice-cold 50 mM Tris-HCl buffer (pH 7.7) when measured at 25° C., 1:40 w/v) and centrifuged at 30,000 g at 4° C. for 10 minutes. The pellet was rehomogenised in the same buffer, incubated at 37° C. for 10 minutes and centrifuged at 30,000 g at 4° C. for 10 minutes. The final pellet was resuspended in 50 mM Tris-HCl buffer (pH 7.7) containing 4 mM CaCl2, 0.1% L-ascorbic acid and 10 μM pargyline hydrochloride (equivalent to 6.25 mg wet weight of tissue/ml) and used immediately in the binding assay. Aliquots (400 μl; equivalent to 2.5 mg wet weight of tissue/tube) of this suspension were added to tubes containing the ligand (50 μl; 2 nM) and distilled water (50 μl; total binding) or 5-HT (50 μl; 10 μM; non-specific binding) or test compound (50 μl; at a single concentration of 10^−6 M or at 10 concentrations ranging from 10^−11-10^−3 M). The ligand was [^3H]8-hydroxy-2-(dipropylamino)tetralin ([^3H]8-OH-DPAT) and the mixture was incubated at 25° C. for 30 minutes before the incubation was terminated by rapid filtration.
(§1) The filters were washed with ice-cold Tris-HCl buffer and dried. The filters were punched out into vials, scintillation fluid added and radioactivity determined by liquid scintillation counting. The percentage displacement of specific binding of the tritiated ligand was calculated for the single concentration (10^−6 M) of test compound. Displacement curves were then produced for those compounds which displaced ≧50% of specific binding of the tritiated ligand at 10^−6 M using a range of concentrations of the compound. The concentration which gave 50% inhibition of specific binding (IC50) was obtained from the curve. The inhibition coefficient Ki was then calculated using the formula [formula]
(§2) in which [ligand] is the concentration of the tritiated ligand used and KD is the equilibrium dissociation constant for the ligand.

α1-adrenoceptors = assay: Inhibition of [7-methoxy-3H]prazosin binding to α1-adrenoceptors, rat whole cortical tissue; details: ligand [7-methoxy-3H]prazosin 0.1 nM
Protocol: Whole cortical tissue from the brains of male Charles River CD rats weighing between 150-250 g were homogenised in ice-cold 50 mM Tris-HCl, pH 7.6 (at 25° C.; 1:40 w/v) and centrifuged at 1000 g at 4° C. for 10 minutes. The supernatant was centrifuged at 30,000 g at 4° C. for 10 minutes. The pellet was rehomogenised in 50 mM Tris-HCl, pH 7.6 (1:40 w/v) and centrifuged at 30,000 g at 4° C. for 10 minutes. The final pellet was resuspended in 50 mM Tris-HCl, pH 7.6 (equivalent to 12.5 mg wet weight of tissue/ml) and used immediately in the binding assay. Aliquots (400 μl; equivalent to 5 mg wet weight of tissue/tube) of this suspension were added to tubes containing the ligand (50 μl; 0.1 nM) and distilled water (50 μl; total binding) or phentolamine (50 μl; 5 μM; non-specific binding) or test compound (50 μl; at a single concentration of 10^−6M or at 10 concentrations ranging from 10^−11-10^−3M). The ligand was [7-methoxy-^3H]prazosin and the mixture was incubated at 30° C. for 30 minutes before the incubation was terminated by rapid filtration.
as §1, §2

[1] = tested on: apomorphine-induced climbing in mice; assay: Antagonism of apomorphine-induced climbing in mice; format: in vivo; details: male mice; for ED50: Mus musculus, po 30 minutes before apomorphine 0.88 mg/kg sc, free base equivalents, read-out: ED50 (dose causing 50% of the control score); for duration: po, antagonism of apomorphine-induced climbing
Protocol: Antagonism of Apomorphine-Induced Climbing in Mice Groups of 10 male mice weighing […] (max. range 10 g) were treated with test compound or control vehicle by po administration. 30 minutes later, mice were injected subcutaneously with apomorphine (0.88 mg/kg). Immediately after the apomorphine injection the mice were placed in the test cages and the climbing behaviour of each mouse was assessed at 10 and 20 minutes on a simple 0-2 ranking scale. The ED50 values (dose causing 50% of the control score) for the test compounds and 95% confidence limits were calculated.

D2 dopamine receptors = molecular target: T2, D2 dopamine receptors (Rattus norvegicus, UniProt P61169); assay: Inhibition of tritiated (S)-sulpiride binding to D2 dopamine receptors, rat striatal tissue; details: ligand tritiated (S)-sulpiride 1 nM
T2 construct: Striatal tissue from the brains of male Charles River CD rats; from tissue; host or cells: rat striatum membrane homogenate
T2 sequence (P61169 whole entry): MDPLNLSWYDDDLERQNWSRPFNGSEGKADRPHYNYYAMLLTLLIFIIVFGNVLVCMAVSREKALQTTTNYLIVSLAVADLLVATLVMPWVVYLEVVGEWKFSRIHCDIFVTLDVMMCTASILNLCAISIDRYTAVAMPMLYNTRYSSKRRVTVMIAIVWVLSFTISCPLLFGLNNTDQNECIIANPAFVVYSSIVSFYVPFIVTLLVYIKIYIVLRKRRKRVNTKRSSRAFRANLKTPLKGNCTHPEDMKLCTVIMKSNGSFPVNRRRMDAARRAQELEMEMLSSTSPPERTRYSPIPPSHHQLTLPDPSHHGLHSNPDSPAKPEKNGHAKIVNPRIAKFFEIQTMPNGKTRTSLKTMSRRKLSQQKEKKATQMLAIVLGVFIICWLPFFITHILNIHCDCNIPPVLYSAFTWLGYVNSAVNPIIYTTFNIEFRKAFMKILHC
Protocol: Striatal tissue from the brains of male Charles River CD rats weighing between 140-250 g were homogenised in ice-cold 50 mM Tris-HCl buffer (pH 7.7 when measured at 25° C.) and centrifuged at 40,000 g for 10 minutes. The pellet was resuspended in Tris salts buffer (50 mM Tris-HCl buffer containing 120 mM NaCl, 5 mM KCl, 2 mM CaCl2 and 1 mM MgCl2 with the addition of 6 mM ascorbic acid; pH 7.7 when measured at 25° C.), and again centrifuged at 40,000 g for 10 minutes. The final pellet was stored at −80° C. Before each test the pellet was resuspended in Tris salts buffer (equivalent to 2 mg wet weight of tissue/ml). […]
The filters were washed with ice-cold Tris-HCl buffer and dried. The filters were punched out in to vials, scintillation fluid added and were left for about 20 hours before being counted by scintillation spectrophotometry. The percentage displacement of specific binding of the tritiated ligand was calculated for the single concentration (10^−6 M) of test compound. […] The inhibition coefficient Ki was then calculated using the formula [formula] […]

| Compound | Ki (5-HT1A receptors) | Ki (α1-adrenoceptors) | ED50 [1] | duration [1] | Ki (D2 dopamine receptors) | melting point |
| --- | --- | --- | --- | --- | --- | --- |
| COc1ccccc1N1CCC(CNC[C@H]2COc3ccc(Cl)cc3O2)CC1 [Comparative Example A, (S)-(−)-N-(7-Chloro-1,4-benzodioxan-2-ylmethyl)-1-(1-(2-methoxyphenyl)piperid-4-yl)methylamine, reference compound] | 22 nM | 53 nM | 5 mg/kg | [>6 h] | – | – |
| Oc1ccccc1N1CCC(CNC[C@H]2COc3ccc(Cl)cc3O2)CC1 [Example 1, (S)-(−)-2-{4-[N-(7-chloro-2,3-dihydro-1,4-benzodioxin-2-ylmethyl)aminomethyl]piperidino}phenol] | 12 nM | 101 nM | 3 mg/kg | [>6 h] | 11 nM | 84 to 86 °C |
| Oc1ccccc1N1CCC(CNC[C@H]2COc3ccc(C(F)(F)F)cc3O2)CC1 [Example 2, (S)-(−)-2-{4-[N-(7-trifluoromethyl-2,3-dihydro-1,4-benzodioxin-2-ylmethyl)aminomethyl]piperidino}phenol] | 37 nM | 573 nM | 0.6 mg/kg | [>4 h] | 25 nM | – |
